Measured values published in US20230293614A1, “COMPOSITIONS AND METHODS OF TREATING UPS-ASSOCIATED DISEASES” (Board of Supervisors of Louisiana State University and …, priority 2020, published 2023).

Columns and labels:
[1] = system: deubiquitinating enzymes (DUBs); experiment: DUB activity (Z-LRGG-AMC cleavage) in lysates of treated MM.1S cells; assay type: cell-based; conditions: for Vmax / effect on DUB activity vs DMSO control / Km / n (Hill coefficient): 16 h; for effect of increasing concentration on DUB activity (normalized Vmax): 1, 10, 30 μg/mL, regression fit
Description: (§1) OPM2 cells were maintained in RPMI 1640 media supplemented with 12% FBS, 21.8 mM glucose, 8.6 mM HEPES (pH 7.4) and 1.0 mM sodium pyruvate. MM.1S cell line were maintained in RPMI 1640 media supplemented with 10% FBS. The cells were all cultured in T175 flasks (VWR, Radnor, Pa.). All media components were from Corning, Atlanta, Ga. unless otherwise noted. To test the effect of the ethanolic extract and bioactive compounds on DUB activity, cells were exposed to a 16-h pretreatment with 10 μg/mL of PMI-5011 and 1, 10, 30 μg/mL concentrations of DMC-1, DMC-2, KOE, and davidigenin before lysing the cells for experimentation. All compounds were reconstituted in DMSO to obtain stock concentrations, which was further diluted in culture media to obtain the desired experimental concentrations. For vehicle control, a subpopulation of cells was treated with pure DMSO diluted in a similar manner for the same duration. Upon treatment, cell lysates (both OPM2 and MM.1S) were generated by harvesting 1×10^6 cells/mL, followed by washing 2× and pelleting in phosphate buffered saline (PBS; 137 mM NaCl, 10 mM Na2HPO4, […], and 1.75 mM KH2PO4 at pH 7.4). The cell pellet was re-suspended in an approximately equivalent volume of M-PER to the volume of the cell pellet (1000-2000 μL) then vortexed for 10 min at room temperature. Following this, the mixture was centrifuged at 14,000×g for 15 min at 4° C. and the supernatant transferred to a centrifuge tube and stored on ice until use. Total protein concentration was determined using a NanoDrop 2000c (Thermo Scientific, Madison, Wis.).
(§2) The commercial DUB reporter, Z-LRGG-AMC (substrate) (SEQ ID NO: 1) was reconstituted in DMSO to obtain a final stock concentration of 1.44 mM. This stock reporter was diluted as needed in assay buffer (50 mM HEPES, pH 7.4, 150 mM NaCl, 2 mM DTT, and 0.02% Tween-20) supplemented with 4 mg/mL cell lysates (source of DUBs) to reach the desired reporter concentration with a final volume of 100 μL in a 96-well plate. OPM2 and MM.1S cell lysates from different treatments (10 μg/mL of PMI-5011; 1, 10, and 30 μg/mL of DMC-1, DMC-2, KOE, davidigenin and control vehicle DMSO) and C2C12 cell lysates were used to interrogate the effect of the ethanolic extract and selected bioactive compounds on DUB activity. Reporter only and lysates only (noise/background) samples were included in the 96-well plate to confirm that the rates observed were due to DUB-mediated hydrolysis initiated by the cell lysates. The 96-well plate was maintained at a temperature of 30° C. in the dark for the duration of the experiment. The fluorescence signals emitted as a result of DUB-mediated cleavage of AMC (λex=355 nm and λem=460 nm) were quantified using a Wallac 1420 VICTOR2 multilabel HTS counter fluorometry (Perkin Elmer (Waltham, Mass.). Readings were collected every 30 min for 6 h. The normalized signals were obtained by comparing the treatment with noise and background fluorescence values which were then statistically analyzed for their significance. Each data point represents triplicate data points from duplicate experiments. A calibration curve was generated for known concentrations of AMC to correlate the fluorescence signal (AU) to concentration (μM). The approximate concentration of free fluorophore was used to calculate reaction rates (μM/min) for each substrate concentration using linear regression analysis.
(§3) All data visualization, interpretation and curve-fittings were performed using Origin Pro (OriginLab, Northampton, MA) while statistical analyses of experimental data were carried out using SAS 9.4 (SAS Solutions). The analyses of enzyme-substrate reactions in all cell lysates started with scatter plotting the fluorometry signals (p,M) measured for each substrate concentration against time (min). Fluorescence signals measured for each substrate concentration remained stable during the first 30 min, indicating there was a 30-minute lag period before reaction initiation. […]

[2] = system: deubiquitinating enzymes (DUBs); experiment: DUB activity (Z-LRGG-AMC cleavage) in lysates of treated OPM2 cells; assay type: cell-based; conditions: for Vmax / effect on DUB activity vs DMSO control / Km / n (Hill coefficient): 16 h; for effect of increasing concentration on DUB activity (normalized Vmax): 1, 10, 30 μg/mL, regression fit
Description: as §1, §2, §3

[3] = MTT cellular viability assay, MM.1S; assay type: cell-based; conditions: human, MM.1S cells, read-out: percentage of viable cells
Description: (§4) The effect of PMI-5011 and bioactive compounds on the viability of cells was tested using a standard colorimetric MTT assay. The MTT Cell Proliferation Assay Kit was purchased from VWR, Radnor, Pa. MM.1S and OPM2 cells were treated with 10 μg/mL of PMI-5011 and 1, 10, and 30 μg/mL of DMC-1, DMC-2, KOE and davidigenin and plated at a density of 10^6 cells/mL in a 96-well plate with each well containing 250 μL of the sample. The plated cells were then incubated at 37° C. for 16 h. 10 μg/mL for PMI-5011 and a 16-h treatment period was used in this study based on previous findings by Yu et al.^24 Parallel plates were prepared for positive and negative solvent vehicle control with the same volume of DMSO and ethanol as for the treated cells. On the day of the experiment, the 96-well plates were centrifuged at 1000×g at 4° C. for 5 min in a microplate compatible centrifuge. The media was discarded and 50 μL of serum-free media and 50 μL of the MTT reagent were added into each well. For a background control, 50 μL of the MTT reagent was added into a well containing media only (no cells). The plate was incubated at 37° C. for 3 h in the dark. After incubation, 150 μL of the MTT solvent was added into each well. The plate was wrapped in a foil and placed on an orbital shaker for 15 min. Finally, the absorbance was measured at λex=544 nm and λem=590 nm using a Wallac 1420 VICTOR2 multilabel HTS counter fluorometry (Perkin Elmer (Waltham, Mass.). The percentage viable cells was obtained by Eq. 1.
(§5) % Viable Cells=S-N/C-N×100 (Eq. 1)
(§6) Where, S denotes raw absorbance values from samples, N denotes average absorbance value of the background control and C denotes the highest average absorbance value of positive vehicle control. The obtained percentage cytotoxicity values were then statistically analyzed for their significance. Each data point represents triplicate data points from duplicate experiments. The effect of PMI-5011 and the selected bioactive compounds on C2C12 cell viability has previously been reported.^24

[4] = MTT cellular viability assay, OPM2; assay type: cell-based; conditions: human, OPM2 cells, read-out: percentage of viable cells
Description: as §4, §5, §6

DUB = experiment: Experiment 2: DUB reporter Z-LRGG-AMC with control, 5011, IU1 and KOE lysates; assay type: biochemical; conditions: lysate 4 mg/mL
Description: Peptide used was the commercial DUB reporter [Z-LRGG-AMC (SEQ ID NO: 1)] at multiple concentration [50-150 um]. 640 μL protein at 10 mg/mL for each set was given. Final protein concentration in micro-wells was 4 mg/mL. Peptide was incubated with control, 5011 treated, 25 uM IU1, 50 uM IU1 and KOE in DUB assay buffer. Fluorometric readings were taken at different time points in plate reader. Measured at [Em 460/Ex 355]. Fluorescent signals were converted to μM/min using a calibration curve for the AMC fluorophore. Rates were plotted vs. substrate concentration (Z-LRGG-AMC peptide (SEQ ID NO: 1)) (FIG. 7).

[5] = Table 2, OPM-2, 1 μg/mL, in µM/min
[6] = Table 2, OPM-2, 10 μg/mL, in µM/min
[7] = Table 2, OPM-2, 30 μg/mL, in µM/min

| SMILES | Vmax ([1]; 1 μg/mL) [µM/min] | effect on DUB activity vs DMSO control ([1]; 1 μg/mL) | Vmax ([1]; 10 μg/mL) [µM/min] | effect on DUB activity vs DMSO control ([1]; 10 μg/mL) | Vmax ([1]; 30 μg/mL) [µM/min] | effect on DUB activity vs DMSO control ([1]; 30 μg/mL) | effect of increasing concentration on DUB activity (normalized Vmax) [1] | Km ([1]; Table 2, 1 μg/mL) [µM] | Vmax ([1]; Table 2, 1 μg/mL) [µM/min] | n (Hill coefficient) ([1]; Table 2, 1 μg/mL) | Km ([1]; Table 2, 10 μg/mL) [µM] | Vmax ([1]; Table 2, 10 μg/mL) [µM/min] | n (Hill coefficient) ([1]; Table 2, 10 μg/mL) | Km ([1]; Table 2, 30 μg/mL) [µM] | Vmax ([1]; Table 2, 30 μg/mL) [µM/min] | n (Hill coefficient) ([1]; Table 2, 30 μg/mL) | Vmax ([2]; OPM2, 1 μg/mL) [µM/min] | effect on DUB activity vs DMSO control ([2]; OPM2, 1 μg/mL) | Vmax ([2]; OPM2, 10 μg/mL) [µM/min] | effect on DUB activity vs DMSO control ([2]; OPM2, 10 μg/mL) | also measured |
| --- | --- | --- | --- | --- | --- | --- | --- | --- | --- | --- | --- | --- | --- | --- | --- | --- | --- | --- | --- | --- | --- |
| O=C(CCc1ccc(O)cc1)c1ccc(O)cc1O [DVG, 1-(2,4-dihydroxyphenyl)-3-(4-hydroxyphenyl)propan-1-one] | 12.72 ± 0.78 | significantly enhanced | 12.23 ± 1.30 | significantly enhanced | 6.48 ± 0.54 | significantly inhibited | negative linear effect | 30.2 | 0.0127 | 2.01 | 39.2 | 0.0122 | 1.92 | 38.4 | 0.00648 | 1.51 | 23.32 ± 1.58 | significantly enhanced | 24.76 ± 1.84 | significantly enhanced | effect on DUB activity (summary) [1]: inhibit; effect on DUB activity (summary) ([2]; OPM2): enhance; Vmax ([2]; OPM2, 30 μg/mL): 315.24 ± 41.65 µM/min; effect on DUB activity vs DMSO control ([2]; OPM2, 30 μg/mL): significantly enhanced; effect of increasing concentration on DUB activity (normalized Vmax) ([2]; OPM2): exponential increase; Km ([2]; Table 2, OPM-2, 1 μg/mL): 56.4 µM; n (Hill coefficient) ([2]; Table 2, OPM-2, 1 μg/mL): 0.82; Vmax [2, 5]: 23.32; Km ([2]; Table 2, OPM-2, 10 μg/mL): 45.5 µM; n (Hill coefficient) ([2]; Table 2, OPM-2, 10 μg/mL): 1.78; Vmax [2, 6]: 24.76; Km ([2]; Table 2, OPM-2, 30 μg/mL): 89.4 µM; n (Hill coefficient) ([2]; Table 2, OPM-2, 30 μg/mL): 1.34; Vmax [2, 7]: 315.24; viability at 16 h, 1 μg/mL [3]: ~105%; viability at 16 h, 30 μg/mL [3]: ~80%; viability at 16 h, 1 μg/mL [4]: ~90%; viability at 16 h, 30 μg/mL [4]: ~60% |
| COc1ccc(C(=O)CCc2ccc(O)cc2)c(O)c1 [DMC-1, 1-(2-hydroxy-4-methoxyphenyl)-3-(4-hydroxyphenyl)propan-1-one] | 7.03 ± 1.10 | significantly inhibiting | 9.19 ± 0.78 | significantly inhibiting | 12.91 ± 1.45 | significantly enhanced | positive linear effect | 21 | 0.00703 | 1.33 | 26 | 0.00919 | 1.64 | 29.3 | 0.0129 | 1.07 | 33.06 ± 5.08 | significantly inhibiting | 27.93 ± 4.80 | significantly inhibiting | Vmax ([2]; OPM2, 30 μg/mL): 233.44 ± 27.31 µM/min; effect on DUB activity vs DMSO control ([2]; OPM2, 30 μg/mL): significantly enhanced; effect of increasing concentration on DUB activity (normalized Vmax) ([2]; OPM2): exponential increase; Km ([2]; Table 2, OPM-2, 1 μg/mL): 61.4 µM; n (Hill coefficient) ([2]; Table 2, OPM-2, 1 μg/mL): 1.29; Vmax [2, 5]: 33.06±; Km ([2]; Table 2, OPM-2, 10 μg/mL): 46.3 µM; n (Hill coefficient) ([2]; Table 2, OPM-2, 10 μg/mL): 1.40; Vmax [2, 6]: 27.93; Km ([2]; Table 2, OPM-2, 30 μg/mL): 140 µM; n (Hill coefficient) ([2]; Table 2, OPM-2, 30 μg/mL): 0.93; Vmax [2, 7]: 233.44; viability at 16 h, 1 μg/mL [3]: ~95%; viability at 16 h, 30 μg/mL [3]: ~55%; viability at 16 h, 1 μg/mL [4]: ~100%; viability at 16 h, 30 μg/mL [4]: ~60% |
| Cc1cc(C(=O)CN2CCCC2)c(C)n1-c1ccc(F)cc1 [IU1] |  |  |  |  |  |  |  |  |  |  |  |  |  |  |  |  |  |  |  |  | effect on DUB activity vs control (DUB; 25 μM): inhibit; effect on DUB activity vs control (DUB; 50 μM): inhibit |
